Laboratory results taken from patent publication US20140357713A1, “ANTIMICROBIAL COMPOUNDS AND METHODS OF USE” (NexMed Holdings, Inc., priority 2012, published 2014).
In brackets after ≈: the same amount, converted by molar mass. Counter-ions that a name gives are not always drawn. Like-named read-outs stand apart in the source and are kept apart here.

Key:
[1] = tested on: Candida albicans (ATCC 90029); assay: Minimum inhibitory concentration (MIC) assay, Example 33; type: cell-based
Experimental: (§1) Thirty compounds were tested for antimicrobial activity using standard procedures and standard strains for both the minimum inhibitory concentration (MIC) assay and a time kill study. Both the MIC assay and the time kill study were performed according to Clinical and Laboratory Standards Institute (CLSI) guidelines. Three bacteria strains, Escherichia coli (ATCC 25922), Pseudomonas aeruginosa (ATCC 27853), Staphulococcus aureus (ATCC 29213), and two fungus strains, Candida albicans (ATCC 90029) and Aspergillus niger (CMCC 98003), were used in the experiments.
(§2) Preparation of cultures. Before the experiment, two days for the bacteria strains and five days for fungus strains, an aliquot was removed from the cultures frozen at −80° C. Medium was added to the surface of an appropriate agar plate and streaked with the aliquot. The plate was incubated for 20 to 24 hrs at 35±2° C. for bacteria or for 5 days at 26-30° C. in incubator for fungus. From the resulting growth on each plate, one isolated colony of similar morphology was selected and re-streaked onto a fresh agar plate using a sterile disposable loop. The plate was incubated 20 to 24 hrs at 35±2° C. or for 5 days at 26-30° C. in an incubator.
(§3) Preparation of Assay Plates with Medium and Drugs. On the day of the assay, CAMHB medium or RPMI 1640 medium was removed from 4′C storage and allowed to reach room temperature. Ninety microliters (μL) of room temperature CAMHB or RPMI 1640 (supplemented with the appropriate concentration of DMSO, if required) were added to rows B-G of each 96-well microtiter plate. Using a pipette, duplicate 180 μL aliquots of each drug stock solution were added to column 1 (e.g. A1 and B1 or C1 and D1 or E1 and F1 or G1 and H1). Using a multichannel pipette or the Provision 2000 liquid handler, serial 2-fold dilutions (90 μL) were performed in each row across the plate to row G. Eighty μL of compounds dilutions were transferred to a 96-deep well plate. Medium, 1,520 μL of CAMHB or RPMI 1640, was added to each well. The contents of the wells were mixed thoroughly. A 50 μL aliquot of each of the resulting mixtures was transferred to a 96-well assay plate.
For Candida albicans, a sterile inoculating loop was used to transfer growth from an agar plate culture into a tube with RPMI1640 medium. This inoculum was adjusted so that its density at 530 nm was in the ranges from 0.08 to 0.13. The resulting suspension was diluted 1:50 and further diluted 1:20 with the medium to obtain two times test inoculums.
(§4) For Aspergillus niger, sporulating colonies were covered with RPMI 1640, and a suspension was prepared by gently probing the colonies with the tip of a transfer pipette. The suspension was transferred to a sterile tube and mixed with a vortex mixer for 15 seconds. The densities at 530 nm were adjusted to 0.09-0.13 for each sample. The resulting suspension was diluted 1:50 with the medium to obtain two times test inoculums. Fifty μL/well of this inoculum suspension was added to wells of drug-containing plates (1:2 dilution). Plates were incubated at 35° C. for the appropriate times. The MIC was read and recorded according to CLSI guidelines.
(§5) The MIC values for thirty compounds against Escherichia coli, Pseudomonas aeruginosa, Staphulococcus aureus, Candida albicans, and Aspergillus niger were recorded and are presented in Table 3 and Table 4.

[2] = tested on: Aspergillus niger (CMCC 98003); assay: as above; type: cell-based
Experimental: as §1, §2, §3, §4, §5

[3] = tested on: Escherichia coli (ATCC 25922); assay: Time kill study, Example 33 (0 to 5 min); type: cell-based; conditions: 1×MIC
Experimental: as §1
(§6) The viable counts in Log10 CFU/mL at each time point were recorded.
(§7) Time kill studies. Strain suspensions were prepared as described above for the MIC test, and strain suspensions and compound solutions were mixed in the same volume. Samples were removed at specified times including 0 min, 30 sec, 1 min and 5 mins, were diluted in the test medium and streaked on agar. Colonies were counted after 24 to 48 hrs of incubation. […]

[4] = tested on: Staphylococcus aureus (ATCC 29213); assay: Time kill study, Example 33 (0 to 5 min); type: cell-based; conditions: 1×MIC
Experimental: as §1, §6, §7

[5] = tested on: Pseudomonas aeruginosa (ATCC 27853); assay: Time kill study, Example 33 (0 to 5 min); type: cell-based; conditions: 1×MIC
Experimental: as §1, §6, §7

[6] = tested on: Staphulococcus aureus (ATCC 29213); assay: Minimum inhibitory concentration (MIC) assay, Example 33; type: cell-based, Staphylococcus aureus; conditions: for MIC: Table 19 summary
Experimental: as §1, §2, §3
(§8) For bacteria, a sterile inoculating loop was used to transfer growth from an agar plate culture into about 5 mL of test medium. Using a turbidity meter, this inoculum was adjusted so that its density (600 nm) was equivalent to a 0.5 McFarland barium sulfate standard (0.08-0.13). The resulting suspension was diluted 1:100 into medium to obtain two times test inoculums.
as §4, §5

[7] = tested on: Escherichia coli (ATCC 25922); assay: as above; type: cell-based; conditions: for MIC: Table 19 summary of Example 33 and Example 35
Experimental: as §1, §2, §3, §8, §4, §5

[8] = tested on: Pseudomonas aeruginosa (ATCC 27853); assay: as above; type: cell-based; conditions: for MIC: Table 19 summary
Experimental: as §1, §2, §3, §8, §4, §5

pH (Table 1) = type: physicochemical
[9] = Table 19 summary, methanesulfonate

OC(Cn1cncn1)(Cn1cncn1)c1ccc(F)cc1F [Fluconazole, reference compound]
MIC ([1]; Candida albicans, ATCC90029, n = 1, read-out: MIC Candida albicans): 0.25 µg/mL (≈ 0.816 µM)
MIC ([1]; Candida albicans, ATCC90029, n = 2, read-out: MIC Candida albicans): 0.25 µg/mL (≈ 0.816 µM)
MIC ([2]; Aspergillus niger, CMCC98003, n = 1, read-out: MIC Aspergillus niger): > 4000 µg/mL
MIC ([2]; Aspergillus niger, CMCC98003, n = 2, read-out: MIC Aspergillus niger): > 4000 µg/mL

CCCCCCCCCCCCOC(=O)C(C)N(C)C (stereo not drawn) [Nex-20, Dodecyl 2-(dimethylamino)propanoate maleate]
MIC ([1]; Table 19 summary, maleate): 12500 µg/mL
MIC Candida albicans ([1]; n = 1, maleate): 12500 µg/mL
MIC Candida albicans ([1]; n = 2, maleate): 12500 µg/mL
Viable counts, Escherichia coli time kill study ([3]; 0.5 min, maleate): 5.84 Log10 CFU/mL
Viable counts, Escherichia coli time kill study ([3]; 1 min, maleate): 5.92 Log10 CFU/mL
Viable counts, Escherichia coli time kill study ([3]; 5 min, maleate): 4.37 Log10 CFU/mL
Viable counts, Escherichia coli time kill study ([3]; time 0, maleate): 5.86 Log10 CFU/mL
Viable counts, Staphylococcus aureus time kill study ([4]; 0.5 min, maleate): 6.18 Log10 CFU/mL
Viable counts, Staphylococcus aureus time kill study ([4]; 1 min, maleate): 6.15 Log10 CFU/mL
Viable counts, Staphylococcus aureus time kill study ([4]; 5 min, maleate): 5.61 Log10 CFU/mL
Viable counts, Staphylococcus aureus time kill study ([4]; time 0, maleate): 6.15 Log10 CFU/mL
Viable counts, Pseudomonas aeruginosa time kill study ([5]; 0.5 min, maleate): <4.0 Log10 CFU/mL
Viable counts, Pseudomonas aeruginosa time kill study ([5]; 1 min, maleate): 3.7 Log10 CFU/mL
Viable counts, Pseudomonas aeruginosa time kill study ([5]; 5 min): <3.52 Log10 CFU/mL
Viable counts, Pseudomonas aeruginosa time kill study ([5]; time 0, maleate): 5.56 Log10 CFU/mL
MIC S. aureus ([6]; n = 1, maleate): 3130 µg/mL
MIC S. aureus ([6]; n = 2, maleate): 1560 µg/mL
MIC ([7]; maleate): 1560 µg/mL
MIC E. coli ([7]; n = 1, maleate): 1560 µg/mL
MIC E. coli ([7]; n = 2, maleate): 1560 µg/mL
MIC ([8]; maleate): 6250 µg/mL
MIC P. aeruginosa ([8]; n = 1, maleate): 6250 µg/mL
MIC P. aeruginosa ([8]; n = 2, maleate): 6250 µg/mL
pH (pH (Table 1); maleate): 3.39
MIC ([2]; Aspergillus niger, CMCC98003, Table 19 summary, read-out: MIC): > 12500 µg/mL
MIC Aspergillus niger ([2]; n = 1, maleate): >12500 µg/mL

CCCCCCCCCCCCOC(=O)C(C)N(C)C (stereo not drawn) [Nex-22, Dodecyl 2-(dimethylamino)propanoate methanesulfonate]
MIC [1, 9]: >12500 µg/mL
MIC Candida albicans ([1]; n = 1, methanesulfonate): >12500 µg/mL
MIC Candida albicans ([1]; n = 2, methanesulfonate): >12500 µg/mL
Viable counts, Escherichia coli time kill study ([3]; 0.5 min, methanesulfonate): 4.6 Log10 CFU/mL
Viable counts, Escherichia coli time kill study ([3]; 1 min, methanesulfonate): <3.70 Log10 CFU/mL
Viable counts, Escherichia coli time kill study ([3]; 5 min, methanesulfonate): <3.52 Log10 CFU/mL
Viable counts, Escherichia coli time kill study ([3]; time 0, methanesulfonate): 5.78 Log10 CFU/mL
Viable counts, Staphylococcus aureus time kill study ([4]; 0.5 min, methanesulfonate): 6.2 Log10 CFU/mL
Viable counts, Staphylococcus aureus time kill study ([4]; 1 min, methanesulfonate): 6.18 Log10 CFU/mL
Viable counts, Staphylococcus aureus time kill study ([4]; 5 min, methanesulfonate): 6.21 Log10 CFU/mL
Viable counts, Staphylococcus aureus time kill study ([4]; time 0, methanesulfonate): 6.08 Log10 CFU/mL
Viable counts, Pseudomonas aeruginosa time kill study ([5]; 0.5 min, methanesulfonate): <4.0 Log10 CFU/mL
Viable counts, Pseudomonas aeruginosa time kill study ([5]; 1 min, methanesulfonate): <3.70 Log10 CFU/mL
Viable counts, Pseudomonas aeruginosa time kill study ([5]; time 0, methanesulfonate): 5.64 Log10 CFU/mL
MIC ([6]; methanesulfonate): 3130 µg/mL
MIC S. aureus ([6]; n = 1, methanesulfonate): 3130 µg/mL
MIC S. aureus ([6]; n = 2, methanesulfonate): 3130 µg/mL
MIC ([7]; methanesulfonate): 3130 µg/mL
MIC E. coli ([7]; n = 1, methanesulfonate): 3130 µg/mL
MIC E. coli ([7]; n = 2, methanesulfonate): 3130 µg/mL
MIC ([8]; methanesulfonate): 6250 µg/mL
MIC P. aeruginosa ([8]; n = 1, methanesulfonate): 6250 µg/mL
MIC P. aeruginosa ([8]; n = 2, methanesulfonate): 6250 µg/mL
pH (pH (Table 1); methanesulfonate): 3.25
MIC [2, 9]: >12500 µg/mL
MIC Aspergillus niger ([2]; n = 1, methanesulfonate): >12500 µg/mL

CCCCCCCCCCCCOC(=O)C(C)N(C)C (stereo not drawn) [Nex-30, Dodecyl 2-(dimethylamino)propanoate ethanesulfonate]
MIC ([1]; Table 19 summary): >12500 µg/mL
MIC Candida albicans ([1]; n = 1): >12500 µg/mL
MIC Candida albicans ([1]; n = 2): >12500 µg/mL
Viable counts, Escherichia coli time kill study ([3]; 0.5 min): 5.46 Log10 CFU/mL
Viable counts, Escherichia coli time kill study ([3]; 1 min): 3.7 Log10 CFU/mL
Viable counts, Escherichia coli time kill study ([3]; 5 min): <3.52 Log10 CFU/mL
Viable counts, Escherichia coli time kill study ([3]; time 0): 5.83 Log10 CFU/mL
Viable counts, Staphylococcus aureus time kill study ([4]; 0.5 min): 6.23 Log10 CFU/mL
Viable counts, Staphylococcus aureus time kill study ([4]; 1 min): 6.22 Log10 CFU/mL
Viable counts, Staphylococcus aureus time kill study ([4]; 5 min): 6.21 Log10 CFU/mL
Viable counts, Staphylococcus aureus time kill study ([4]; time 0): 6.24 Log10 CFU/mL
Viable counts, Pseudomonas aeruginosa time kill study ([5]; 0.5 min): <4.0 Log10 CFU/mL
Viable counts, Pseudomonas aeruginosa time kill study ([5]; 1 min): <3.70 Log10 CFU/mL
Viable counts, Pseudomonas aeruginosa time kill study ([5]; 5 min): <3.52 Log10 CFU/mL
Viable counts, Pseudomonas aeruginosa time kill study ([5]; time 0): 5.67 Log10 CFU/mL
MIC [6]: 3130 µg/mL
MIC S. aureus ([6]; n = 1): 3130 µg/mL
MIC S. aureus ([6]; n = 2): 3130 µg/mL
MIC [7]: 3130 µg/mL
MIC E. coli ([7]; n = 1): 3130 µg/mL
MIC E. coli ([7]; n = 2): 3130 µg/mL
MIC [8]: 6250 µg/mL
MIC P. aeruginosa ([8]; n = 1): 6250 µg/mL
MIC P. aeruginosa ([8]; n = 2): 6250 µg/mL
pH (pH (Table 1)): 3.79
MIC ([2]; Table 19 summary): >12500 µg/mL
MIC Aspergillus niger ([2]; n = 1): >12500 µg/mL
MIC Aspergillus niger ([2]; n = 2): >12500 µg/mL
